From patent US10766903B2 (ALMAC DISCOVERY LIMITED, priority 2016, dated 2020)

Each molecule was assayed against USP7 (Homo sapiens (Human), UniProt Q93009) (assay: USP7 fluorescence polarisation (FP) biochemical assay, ubiquitin-Lys-TAMRA substrate). Conditions: not given.
Sequence of USP7 (Q93009 whole entry): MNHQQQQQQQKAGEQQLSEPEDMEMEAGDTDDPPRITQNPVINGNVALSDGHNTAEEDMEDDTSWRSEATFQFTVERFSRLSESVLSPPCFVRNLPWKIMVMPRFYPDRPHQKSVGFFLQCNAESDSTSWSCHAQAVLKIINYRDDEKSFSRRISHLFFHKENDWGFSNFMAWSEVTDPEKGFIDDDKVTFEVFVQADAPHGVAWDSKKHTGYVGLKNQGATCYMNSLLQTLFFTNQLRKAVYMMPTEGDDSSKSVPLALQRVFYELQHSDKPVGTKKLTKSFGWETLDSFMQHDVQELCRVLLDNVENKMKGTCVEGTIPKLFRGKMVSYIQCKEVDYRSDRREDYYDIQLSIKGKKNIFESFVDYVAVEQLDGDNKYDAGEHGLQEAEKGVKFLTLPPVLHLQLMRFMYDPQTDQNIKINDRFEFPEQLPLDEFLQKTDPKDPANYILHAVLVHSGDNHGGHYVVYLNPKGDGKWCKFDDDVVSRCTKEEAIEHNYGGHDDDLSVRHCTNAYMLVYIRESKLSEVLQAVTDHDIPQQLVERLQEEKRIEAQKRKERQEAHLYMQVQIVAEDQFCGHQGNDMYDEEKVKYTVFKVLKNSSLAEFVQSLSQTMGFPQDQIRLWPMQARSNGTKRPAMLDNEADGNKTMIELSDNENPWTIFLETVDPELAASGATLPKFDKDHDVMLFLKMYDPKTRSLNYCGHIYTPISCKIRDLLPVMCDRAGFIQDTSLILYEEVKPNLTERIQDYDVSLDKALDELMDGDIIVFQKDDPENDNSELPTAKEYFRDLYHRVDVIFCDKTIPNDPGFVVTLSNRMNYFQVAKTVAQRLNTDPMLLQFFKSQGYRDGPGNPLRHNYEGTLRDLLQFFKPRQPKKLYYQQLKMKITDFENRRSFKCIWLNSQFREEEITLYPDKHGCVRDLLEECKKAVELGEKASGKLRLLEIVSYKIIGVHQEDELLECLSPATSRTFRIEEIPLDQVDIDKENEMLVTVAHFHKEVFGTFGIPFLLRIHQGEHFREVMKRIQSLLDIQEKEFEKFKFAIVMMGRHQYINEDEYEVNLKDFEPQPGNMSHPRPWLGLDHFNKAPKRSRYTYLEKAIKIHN
Method in brief: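 Full-length His6-USP7 (2.5 nM) incubated ± inhibitor (8-point dilutions, 200 to 0.1 μM before addition) in 50 mM HEPES pH 7.2, 150 mM NaCl, 0.5 mM EDTA, 5 mM DTT, 0.05% BSA, 0.05% CHAPS. Ubiquitin-Lys-TAMRA cleavage followed by FP (ex 530/em 575 nm) every 15 min for 1.5 h; normalised to no-compound control.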
`C[C@H](CC(=O)N1CCC(O)(Cn2cnc3c(-c4cccc(CN5CCOCC5)c4)n(C)nc3c2=O)CC1)c1ccccc1` [Example 108, (R)-6-((4-Hydroxy-1-(3-phenylbutanoyl)piperidin-4-yl)methyl)-2-methyl-3-(3-(morpholinomethyl)phenyl)-2H-pyrazolo[4,3-d]pyrimidin-7(6H)-one] was tested, and the IC50 was 250 to 999 nM.

Same assay, conditions: Table 3, effect of the R2 substituent; read-out: USP7 IC50
`Cn1nc2c(=O)n(CC3(O)CCN(C(=O)CCc4ccccc4)CC3)cnc2c1C(F)(F)F` [Example 39, 6-((4-Hydroxy-1-(3-phenylpropanoyl)piperidin-4-yl)methyl)-2-methyl-3-(trifluoromethyl)-2H-pyrazolo[4,3-d]pyrimidin-7(6H)-one] showed an IC50 of 14000 nM.
In the case of `C[C@H](CC(=O)N1CCC(O)(Cn2cnc3cn(C)nc3c2=O)CC1)c1ccccc1` [Example 20, (R)-6-((4-Hydroxy-1-(3-phenylbutanoyl)piperidin-4-yl)methyl)-2-methyl-2H-pyrazolo[4,3-d]pyrimidin-7(6H)-one], the IC50 is reported as 3000 nM.

Same assay, conditions: Table 4, biochemical assay; average of at least duplicate experiments; read-out: USP7 IC50
In the case of `C[C@H](CC(=O)N1CCC(O)(Cn2cnc(NCCNc3nccc(C(F)(F)F)n3)cc2=O)CC1)c1ccccc1` [Example 145, (R)-3-((4-hydroxy-1-(3-phenylbutanoyl)piperidin-4-yl)methyl)-6-((2-((4-(trifluoromethyl)pyrimidin-2-yl)amino)ethyl)amino)pyrimidin-4(3H)-one], the IC50 is reported as 1000 to 200000 nM.
In the case of `Cn1nccc1-c1cccc(-n2c(Cl)cc3c(=O)n(CC4(O)CCN(C(=O)c5cnc(C6CC6)o5)CC4)cnc32)c1` [Example 210, 6-Chloro-3-((1-(2-cyclopropyloxazole-5-carbonyl)-4-hydroxypiperidin-4-yl)methyl)-7-(3-(1-methyl-1H-pyrazol-5-yl)phenyl)-3H-pyrrolo[2,3-d]pyrimidin-4(7H)-one], the IC50 is reported as 250 to 999 nM.
In the case of `C[C@H](CC(=O)N1CCC(O)(Cn2cnc(N[C@@H](Cc3ccccc3)CN3CCCC3)cc2=O)CC1)c1ccccc1` [Example 57, 3-((4-Hydroxy-1-((R)-3-phenylbutanoyl)piperidin-4-yl)methyl)-6-(((S)-1-phenyl-3-(pyrrolidin-1-yl)propan-2-yl)amino)pyrimidin-4(3H)-one, Formic Acid], the IC50 is reported as 1000 to 200000 nM.
`CC(=O)N1CCC(O)(Cn2cnc(NCCN3CCCC3)cc2=O)CC1` [Example 132, 3-((1-Acetyl-4-hydroxypiperidin-4-yl)methyl)-6-((2-(pyrrolidin-1-yl)ethyl)amino)pyrimidin-4(3H)-one] showed an IC50 of 1000 to 200000 nM.
In the case of `Cn1nc2c(=O)n(CC3(O)CCN(C(=O)C[C@H](c4ccccc4)C(F)(F)F)CC3)cnc2c1C1=CCCCC1` [Example 134, (R)-3-(Cyclohex-1-en-1-yl)-6-((4-hydroxy-1-(4,4,4-trifluoro-3-phenylbutanoyl)piperidin-4-yl)methyl)-2-methyl-2H-pyrazolo[4,3-d]pyrimidin-7(6H)-one], the IC50 is reported as < 250 nM.
`C[C@H](CC(=O)N1CCC(O)(Cn2cnc3c(nc(-c4ccccc4)n3C)c2=O)CC1)c1ccccc1` [Example 16, (R)-1-((4-Hydroxy-1-(3-phenylbutanoyl)piperidin-4-yl)methyl)-9-methyl-8-phenyl-1H-purin-6(9H)-one] showed an IC50 of 1000 to 200000 nM.
`Cn1nc2c(=O)n(CC3(O)CCN(C(=O)C[C@H](c4ccccc4)C(F)(F)F)CC3)cnc2c1-c1ccc(CCN)cc1` [Example 87, (R)-3-(4-(2-Aminoethyl)phenyl)-6-((4-hydroxy-1-(4,4,4-trifluoro-3-phenylbutanoyl)piperidin-4-yl)methyl)-2-methyl-2H-pyrazolo[4,3-d]pyrimidin-7(6H)-one] was tested, and the IC50 was < 250 nM.
`Cn1nc2c(=O)n(CC3(O)CCN(C(=O)CCc4ccccc4)CC3)cnc2c1C(F)(F)F` [Example 39, 6-((4-Hydroxy-1-(3-phenylpropanoyl)piperidin-4-yl)methyl)-2-methyl-3-(trifluoromethyl)-2H-pyrazolo[4,3-d]pyrimidin-7(6H)-one] showed an IC50 of 1000 to 200000 nM.
In the case of `O=C(c1cnc(C2CC2)o1)N1CCC(O)(Cn2cnc3c(cc(I)n3-c3ccccc3)c2=O)CC1` [Example 224, 3-((1-(2-Cyclopropyloxazole-5-carbonyl)-4-hydroxypiperidin-4-yl)methyl)-6-iodo-7-phenyl-3H-pyrrolo[2,3-d]pyrimidin-4(7H)-one], the IC50 is reported as < 250 nM.
`Cc1nc2c(=O)n(CC3(O)CCN(C(=O)CC(C4CC4)C4CC4)CC3)cnc2n1-c1ccccc1` [Example 190, 1-((1-(3,3-Dicyclopropylpropanoyl)-4-hydroxypiperidin-4-yl)methyl)-8-methyl-9-phenyl-1H-purin-6(9H)-one] gave an IC50 of 1000 to 200000 nM.
For `C[C@H](CC(=O)N1CCC(O)(Cn2cnc3cn(C)nc3c2=O)CC1)c1ccccc1` [Example 20, (R)-6-((4-Hydroxy-1-(3-phenylbutanoyl)piperidin-4-yl)methyl)-2-methyl-2H-pyrazolo[4,3-d]pyrimidin-7(6H)-one], the IC50 was 1000 to 200000 nM.
For `C[C@H](CC(=O)N1CCC(O)(Cn2cnc(/C=C/CN3CC[C@@H](N)C3)cc2=O)CC1)c1ccccc1` [Example 55, 6-((E)-3-((R)-3-Aminopyrrolidin-1-yl)prop-1-en-1-yl)-3-((4-hydroxy-1-((R)-3-phenylbutanoyl)piperidin-4-yl)methyl)pyrimidin-4(3H)-one, Formic Acid], the IC50 was 1000 to 200000 nM.
`[2H]C1([2H])Oc2ccc(-n3c(Cl)cc4c(=O)n(CC5(O)CCN(C(=O)C6(C)CC6)CC5)cnc43)cc2O1` [Example 235, 7-(Benzo[d][1,3]dioxol-5-yl-2,2-d2)-6-chloro-3-((4-hydroxy-1-(1-methylcyclopropane-1-carbonyl)piperidin-4-yl)methyl)-3,7-dihydro-4H-pyrrolo[2,3-d]pyrimidin-4-one] was tested, and the IC50 was < 250 nM.
In the case of `O=C(CC(C1CC1)C1CC1)N1CCC(O)(Cn2cnc(NCCN3CCCC3)cc2=O)CC1` [Example 133, 3-((1-(3,3-Dicyclopropylpropanoyl)-4-hydroxypiperidin-4-yl)methyl)-6-((2-(pyrrolidin-1-yl)ethyl)amino)pyrimidin-4(3H)-one], the IC50 is reported as 250 to 999 nM.
In the case of `Cn1cc(C(=O)N2CCC(O)(Cn3cnc4c(cc(Cl)n4-c4ccccc4)c3=O)CC2)cn1` [Example 216, 6-Chloro-3-((4-hydroxy-1-(1-methyl-1H-pyrazole-4-carbonyl)piperidin-4-yl)methyl)-7-phenyl-3H-pyrrolo[2,3-d]pyrimidin-4(7H)-one], the IC50 is reported as 250 to 999 nM.
`CC1(C(=O)N2CCC(O)(Cn3cnc4c(cc(Cl)n4-c4cccc(C5CC5)c4)c3=O)CC2)CC1` [Example 218, 6-Chloro-7-(3-cyclopropylphenyl)-3-((4-hydroxy-1-(1-methylcyclopropanecarbonyl)piperidin-4-yl)methyl)-3H-pyrrolo[2,3-d]pyrimidin-4(7H)-one] was tested, and the IC50 was < 250 nM.
For `C[C@H](CC(=O)N1CCC(O)(Cn2cnc(/C=C/CN3CC[C@H](N)C3)cc2=O)CC1)c1ccccc1` [Example 56, 6-((E)-3-((S)-3-Aminopyrrolidin-1-yl)prop-1-en-1-yl)-3-((4-hydroxy-1-((R)-3-phenylbutanoyl)piperidin-4-yl)methyl)pyrimidin-4(3H)-one, Formic Acid], the IC50 was 1000 to 200000 nM.
For `Cn1cc(-c2cc(-n3c(Cl)cc4c(=O)n(CC5(O)CCN(C(=O)C6(C)CC6)CC5)cnc43)ccc2F)cn1` [Example 233, 6-Chloro-7-(4-fluoro-3-(1-methyl-1H-pyrazol-4-yl)phenyl)-3-((4-hydroxy-1-(1-methylcyclopropanecarbonyl)piperidin-4-yl)methyl)-3H-pyrrolo[2,3-d]pyrimidin-4(7H)-one], the IC50 was < 250 nM.
`O=C(c1cnc(C2CC2)o1)N1CCC(O)(Cn2cnc3c(cc(Cl)n3-c3ccc(F)cc3)c2=O)CC1` [Example 205, 6-Chloro-3-((1-(2-cyclopropyloxazole-5-carbonyl)-4-hydroxypiperidin-4-yl)methyl)-7-(4-fluorophenyl)-3H-pyrrolo[2,3-d]pyrimidin-4(7H)-one] was tested, and the IC50 was < 250 nM.
`Cn1nc2c(=O)n(CC3(O)CCN(C(=O)C[C@H](c4ccccc4)C(F)(F)F)CC3)cnc2c1-c1ccc([C@H](N)C(F)(F)F)cc1` [Example 119, 3-(4-((S)-1-Amino-2,2,2-trifluoroethyl)phenyl)-6-((4-hydroxy-1-((R)-4,4,4-trifluoro-3-phenylbutanoyl)piperidin-4-yl)methyl)-2-methyl-2H-pyrazolo[4,3-d]pyrimidin-7(6H)-one] was tested, and the IC50 was < 250 nM.
In the case of `C[C@@H](N)c1ccc(-c2c3ncn(CC4(O)CCN(C(=O)C[C@H](c5ccccc5)C(F)(F)F)CC4)c(=O)c3nn2C)cc1` [Example 75, 3-(4-((R)-1-Aminoethyl)phenyl)-6-((4-hydroxy-1-((R)-4,4,4-trifluoro-3-phenylbutanoyl)piperidin-4-yl)methyl)-2-methyl-2H-pyrazolo[4,3-d]pyrimidin-7(6H)-one], the IC50 is reported as < 250 nM.
For `Cc1nc2c(=O)n(CC3(O)CCN(C(=O)C[C@@H](C)c4ccccc4)CC3)cnc2n1-c1ccccc1` [Example 188, (R)-1-((4-Hydroxy-1-(3-phenylbutanoyl)piperidin-4-yl)methyl)-8-methyl-9-phenyl-1H-purin-6(9H)-one], the IC50 was < 250 nM.

Same assay, conditions: USP7 IC50, Table 4, biochemical assay; average of at least duplicate experiments
Work on `C[C@H](CC(=O)N1CCC(O)(Cn2cnc(N3CC4(CCOCC4)C3)cc2=O)CC1)c1ccccc1` [Example 174, (R)-3-((4-hydroxy-1-(3-phenylbutanoyl)piperidin-4-yl)methyl)-6-(7-oxa-2-azaspiro[3.5]nonan-2-yl)pyrimidin-4(3H)-one] yielded an IC50 of 250 to 999 nM.
Molecule `C[C@H](CC(=O)N1CCC(O)(Cn2cnc(N3CCC4(COC4)C3)cc2=O)CC1)c1ccccc1` [Example 179, (R)-3-((4-hydroxy-1-(3-phenylbutanoyl)piperidin-4-yl)methyl)-6-(2-oxa-6-azaspiro[3.4]octan-6-yl)pyrimidin-4(3H)-one] has an IC50 of 250 to 999 nM.
Molecule `C[C@H](CC(=O)N1CCC(O)(Cn2cnc(NCCN3CC[C@H](F)C3)cc2=O)CC1)c1ccccc1` [Example 74, 6-((2-((S)-3-Fluoropyrrolidin-1-yl)ethyl)amino)-3-((4-hydroxy-1-((R)-3-phenylbutanoyl)piperidin-4-yl)methyl)pyrimidin-4(3H)-one, Formic Acid] has an IC50 of 250 to 999 nM.
For `CC(C)Cn1cc(-c2cc(=O)n(CC3(O)CCN(C(=O)C[C@@H](C)c4ccccc4)CC3)cn2)cn1` [Example 41, (R)-3-((4-Hydroxy-1-(3-phenylbutanoyl)piperidin-4-yl)methyl)-6-(1-isobutyl-1H-pyrazol-4-yl)pyrimidin-4(3H)-one], the IC50 was 250 to 999 nM.
